Several values for one entry are separate records, joined by “and”; a condition that tells them apart may be missing. Equal values may be shown once.
Legend:
[1] = test system: patients with pulmonary arterial hypertension; details: active group (n=41), 12 weeks; cited from earlier work
[2] = test system: patients with pulmonary arterial hypertension; details: epoprostenol therapy, 27 consecutive patients; cited from earlier work
[3] = test system: patients with pulmonary arterial hypertension; assay: Inhaled nitric oxide vasodilator challenge during right heart catheterization, retrospective review of prostacyclin wean/transition cases; type: in vivo, human
Text: Inhaled nitric oxide (NO) can be administered during right heart catheterization (RHC) to evaluate and characterize pulmonary hemodynamics following long term parenteral prostacyclin therapy and can provide information that may influence the choice of treatment strategies for these patients. These treatment strategies may involve changing vasodilator therapy, eligibility for lung and/or heart transplantation, or changes in prognosis. Inhaled nitric oxide can be a potent, selective pulmonary vasodilator agent and has been well studied up to 80 ppm. It is expected that inhaled nitric oxide as a diagnostic agent during RHC may be useful for facilitating patient management strategies and provide clinical information beneficial to patient care.
An aim of the project was to collect and review the existing data from centers experienced with the practice of transition from parenteral prostacyclins to an alternative therapy. The review was conducted to determine if a population could be characterized based on the hemodynamic response using inhaled nitric oxide during right heart catheterization. A primary objective of the project was to determine the correlation, if any, between the return of pulmonary vascular reactivity following parenteral prostacyclin therapy and the ability of the patient to transition from parenteral prostacyclins to an alternative therapy. Secondary objectives included the exploration of clinical characteristics of a patient population with a documented wean or transition from parenteral prostacyclins, as well as evaluating any change in clinical impression.
To date seven sites have contributed to the data set collected for a total of 47 baseline visits, and 246 follow-up visits. There are five failed weans and seven late failures. Data was available to review for 40 cases entered. No statistical analysis was performed and reviews completed were descriptive in order to identify any shared characteristics in the population either as a success, failure or late failure.
Three cases, where nitric oxide re-challenge data was available at the time of subject wean, are represented in Table 2.
The lack of correlation between the clinical findings and the ECHO data prompted review of the data. Baseline hemodynamics, wean hemodynamics and echocardiography data were reviewed for all the failed transitions. […] In each case, where echocardiography data was available and right ventricular enlargement was indicated and/or right ventricular dysfunction was indicated, a failed wean or late failure was common.

[4] = failed wean/late failure cases, Time of Wean

Row | Structure (SMILES) | average decline in mean pulmonary arterial pressure [1] | decline in pulmonary vascular resistance [1] | cardiac output increased [2] | mean pulmonary artery pressure declined [2] | pulmonary vascular resistance declined [2] | acute vasodilator response (fall in PAPm of >10 mm Hg to <40 mm Hg) ([3]; all three cases of Table 2) | change in PAPm ([3]; all three cases of Table 2, nitric oxide challenge at time of wean) | NO CO ([3]; cardiac output on nitric oxide challenge at time of wean, one patient case per table row) | change in CO ([3]; case of the failed transition) | change in PVR ([3]; case of the failed transition) | WN NO CO [3, 4] | WN NO PAPm [3, 4] | WN NO PVR [3, 4] | NO PAPm ([3]; mean pulmonary arterial pressure on nitric oxide challenge at time of wean, one patient case per table row) | NO PVR ([3]; pulmonary vascular resistance on nitric oxide challenge at time of wean, one patient case per table row)
1 | CCCCC[C@H](O)/C=C/[C@@H]1[C@H]2C/C(=C/CCCC(=O)O)O[C@H]2C[C@H]1O [epoprostenol] | 8% | 21% | 67% | 22% | 53% |  |  |  |  |  |  |  |  |  | 
2 | [N]=O [NO, nitric oxide] |  |  |  |  |  | failed to meet the criteria | only a modest decrease | 5.2 and 7.8 and 4.77 | marked increase | minimal decrease | 5.2 | 49 | 8.3 | 49 and 48 and 70 | 8.3 and 3.8 and 14.4
